SMILES strings stand for the structures. Read-outs that look alike come from different tables or passages of the source.

Holding throughout (type): cell-based, mouse
Assay [1] deals with DRG action potentials. Nature of the assay: Current clamp recording of cultured DRG neuron action potentials. Conditions: for IC50: Mus musculus, DRG neuron, 2-4 minutes of extracellular drug treatment. From the text:
FIG. 4. N-desmethyl tamoxifen inhibits DRG neuronal transmission. A) Exemplar action potentials recorded from an isolated DRG neuron in control and ND-Tam-treated conditions using a 1 second, 80 pA injection of current. After the experiment was complete, drug was washed out of the bath for five minutes and recovery from inhibition was retested. Consistent with previous reports, the resting membrane potential of the DRG neurons was −53.4±5 mV (Error is equal to S.D., n=109) (PMID: 8052416). B, C) The potency of ND-Tam inhibition on DRG action potential frequency and peak amplitude. Open symbols represent responses from individual cells while filled symbols represent average response per concentration. Error is equal to S.E.M. and the number of cells tested per treatment group is indicated within the parentheses. D, E) A comparison of the potency of cannabidiol (CBD) and carbamazepine (CBZ) inhibition on action potential frequency and peak amplitude. As done previously, drug concentration-INa inhibition relationships were fit to the Hill equation. Open symbols represent responses from individual cells while filled symbols represent average response per concentration. Error is equal to S.E.M. and the number of cells tested per treatment group is indicated within the parentheses.
FIG. 10. N-desmethyl tamoxifen inhibits spontaneous action potentials in sensory neurons. A) Exemplar spontaneous action potentials, recorded from a DRG neuron without injecting current, inhibited by 100 nM N-desmethyl tamoxifen. B) Morphology of a single spontaneous action potential in DRG neuron C) Inhibition of spontaneous action potential frequency by 100 nM ND-Tam (P=0.04). Open symbols represent responses from individual cells and filled symbols represent the average response. Error is equal to S.E.M. from 6 spontaneously firing DRG neurons.
DRG neurons act as a filter to electrical information from the periphery, required for the perception of pain, generated by several types of ion channels, including Navs. For that reason, the inventors compared the pharmacology of ND-Tam against cultured DRG action potentials recorded using current clamp (FIG. 4A). The inventors then compared DRG action potential frequency and amplitude before and after 2-4 minutes of extracellular drug treatment (FIG. 4A-C, FIG. 14). […] After exchanging the drug for control saline for 2 minutes, ND-Tam inhibition of action potential frequency and peak amplitude was persistent (FIG. 4A), which is consistent with the observed slow dissociation of the drug with sodium channels (FIG. 1B, D).
Dorsal root ganglia were isolated using a modified version of the previously described protocol (PMID: 26864470). All animal procedures were approved by the Institutional Animal Care and Use Committee at the Feinberg Medical School, Northwestern University. The spinal columns of 4-6-week-old […] or Nav1.8-Tomato mice (Nav1.8-Td) were removed and DRG neurons from all spinal levels were isolated for primary culture (PMID: 33827672, PMID: 31351964). The collected DRGs, containing both neuronal and non-neuronal cells, were acutely dissociated in DMEM with collagenase IV (2 mg/mL) for 30 minutes, followed by papain (25 U/mL) for 30 minutes. The cells were then triturated, filtered through a 40 μm cell strainer to remove non-dissociated cells, and washed with DMEM. […]

In assay [2] the test system is T1, endogenous voltage-gated sodium channels expressed in murine DRG neurons.
T1 construct: other: DRG neurons, −40 mV holding potential
Nature of the assay: Whole cell voltage clamp of endogenous sodium currents (INa) in cultured DRG sensory neurons. To be noted: −40 mV holding potential, read-out: ND-Tam potency against DRG INa (IC50).

For assay [3], the system named is T2, endogenous voltage-gated sodium channels expressed in murine DRG neurons.
T2 construct: other: waiting for 5 minutes after removal; ND-Tam potency against DRG INa (IC50); other: DRG neurons, −60 mV holding potential; other: 3 μM ND-Tam treatment; other: DR
The assay is described as above. Conditions: −60 mV holding potential, read-out: ND-Tam potency against DRG INa (IC50).

With `CC/C(=C(\c1ccccc1)c1ccc(OCCNC)cc1)c1ccccc1` [ND-Tam, 2-[4-[(Z)-1,2-diphenylbut-1-enyl]phenoxy]-N-methylethanamine], in assay [1], the “potency against action potential frequency and peak amplitude compared with CBZ and CBD (in words)” value is “more potent inhibitor of DRG action potential frequency and peak amplitude than CBZ and CBD”. Besides, in assay [1] (100 nM, three-minute extracellular application, n=6, P=0.04), the “reduction of the frequency of spontaneous sensory neuron action potentials” value was 91%. For the same molecule, the IC50 came out at 1300 nM in assay [1] (80 pA of injected current, read-out: IC50 against action potential peak amplitude); 119 nM in assay [1] (elicited by 80 pA of injected current, read-out: IC50 against action potential firing frequency); 3.9 nM in assay [2]; 112 nM in assay [3]. For the same molecule, the “inhibition of action potential frequency and peak amplitude after washout (in words)” value in assay [1] (after exchanging the drug for control saline for 2 minutes) was “persistent”.

The values are drawn from patent publication US20230141863A1, “Small Molecule Inhibitors Targeting the Sodium Channel Tamoxifen Receptor and Uses Thereof” (Northwestern University, priority 2021, published 2023).
